26 molecules from patent US20090291938A1 (TAKEDA PHARMACEUTICAL COMPANY LIMITED, priority 2007, published 2009) can be followed below.

The structures appear in SMILES notation.

The subject of one assay is HT29 human colorectal adenocarcinoma cell line. In words: cell proliferation assay (Cell Titer-Glo luminescent cell viability assay). Format: cell-based. To be noted: HT-29, 72 h, read-out: pIC50 (converted). As to the method:
The cell culture and proliferation assay may be carried out as follows: the HT29 human colorectal adenocarcinoma cell line (ATCC, USA) was maintained in Dulbecco's Modified Eagle's Medium (Invitrogen, USA) supplemented with 10% fetal bovine serum (JRH, USA). The cell proliferation assay was carried out with the Cell Titer-Glo luminescent cell viability assay (Promega, USA) according to the manufacture's instruction after the 72 hr treatment of the cells in the presence of the compounds. The cell viability was shown as a percentage of DMSO treated cells.
(In general: Cellular ATP, detected with luciferase, serves as a proxy for viable cell number.)
Turning to `CN1CCC(NC(=O)c2ccc(Nc3ncc4c(n3)N(C3CCCC3)CC(C)(C)C(=O)N4C)c(O)c2)CC1` [Compound 121], the IC50 was 3.16 to 10 nM.

The assay is the same for the next values; noted with them: HT-29, cell proliferative assay, HT29 cells, 72 hr treatment, values given as ranges, read-out: pIC50 (converted).
As to `C=CC1(C)CN(C2CCCC2)c2nc(Nc3ccc(C(=O)N[C@H]4CCCNC4)cc3OC)ncc2N(C)C1=O` (stereo partly drawn) [Compound 246, 4-(9-cyclopentyl-5,7-dimethyl-6-oxo-7-vinyl-6,7,8,9-tetrahydro-5H-pyrimido[4,5-b][1,4]diazepin-2-ylamino)-3-methoxy-N-((S)-piperidin-3-yl)benzamide], the IC50 is 1 to 2.51 nM.

Take `C=CC[C@H]1CN(C2CCCC2)c2nc(Nc3ccc(C(=O)N[C@H]4CCN(C)C4)cc3OC)ncc2N(C)C1=O` [Compound 205, 4-((S)-7-allyl-9-cyclopentyl-5-methyl-6-oxo-6,7,8,9-tetrahydro-5H-pyrimido[4,5-b][1,4]diazepin-2-ylamino)-3-methoxy-N-((S)-1-methylpyrrolidin-3-yl)benzamide]: the IC50 is under 1 nM.

Regarding `C=CC[C@H]1CN(C2CCCC2)c2nc(Nc3ccc(C(=O)N[C@H]4CCCN(C)C4)cc3OC)ncc2N(C)C1=O` [Compound 198, 4-((S)-7-allyl-9-cyclopentyl-5-methyl-6-oxo-6,7,8,9-tetrahydro-5H-pyrimido[4,5-b][1,4]diazepin-2-ylamino)-3-methoxy-N-((S)-1-methylpiperidin-3-yl)benzamide], the IC50 is under 1 nM.

Consider `COc1cc(C(=O)NC2CCN(C)CC2)ccc1Nc1ncc2c(n1)N(C1CCCCC1)CC1(CC1)C(=O)N2C` [Compound 169, 4-(9′-cyclohexyl-5′-methyl-6′-oxo-5′,6′,8′,9′-tetrahydrospiro[cyclopropane-1,7′-pyrimido[4,5-b][1,4]diazepine]-2′-ylamino)-3-methoxy-N-(1-methylpiperidin-4-yl)benzamide], for which the IC50 was 1 to 2.51 nM.

As for `COc1cc(C(=O)N[C@H]2CCCN(C)C2)ccc1Nc1ncc2c(n1)N(C1CCCCC1)CC1(CC1)C(=O)N2C` [Compound 171, (S)-4-(9′-cyclohexyl-5′-methyl-6′-oxo-5′,6′,8′,9′-tetrahydrospiro[cyclopropane-1,7′-pyrimido[4,5-b][1,4]diazepine]-2′-ylamino)-3-methoxy-N-(1-methylpiperidin-3-yl)-benzamide], the IC50 was under 1 nM.

On to `COc1cc(C(=O)NC2CCN(C)CC2)ccc1Nc1ncc2c(n1)N(C(C)C)CC(C)(C)C(=O)N2C` [Compound 155, 4-(9-isopropyl-5,7,7-trimethyl-6-oxo-6,7,8,9-tetrahydro-5H-pyrimido[4,5-b][1,4]diazepin-2-ylamino)-3-methoxy-N-(1-methylpiperidin-4-yl)benzamide], for which the IC50 was 3.16 to 10 nM.

With `COc1cc(C(=O)NCc2ccncc2)ccc1Nc1ncc2c(n1)N(C1CCCC1)CCC(=O)N2C` [Compound 71, 4-(9-cyclopentyl-5-methyl-6-oxo-6,7,8,9-tetrahydro-5H-pyrimido[4,5-b][1,4]diazepin-2-ylamino)-3-methoxy-N-(pyridin-4-ylmethyl)benzamide], the IC50 was 3.16 to 10 nM.

In the case of `COc1cc(C(=O)NC2CCN(C)CC2)ccc1Nc1ncc2c(n1)N(C1CCCCC1)CC(C1CC1)C(=O)N2C` (centres unmarked) [Compound 156, 4-(9-cyclohexyl-7-cyclopropyl-5-methyl-6-oxo-6,7,8,9-tetrahydro-5H-pyrimido[4,5-b][1,4]diazepin-2-ylamino)-3-methoxy-N-(1-methylpiperidin-4-yl)benzamide], the IC50 was over 10 nM.

As to `COc1cc(C(=O)N[C@@H]2CCCN(C)C2)ccc1Nc1ncc2c(n1)N(C1CCCC1)CCC(=O)N2C` [Compound 53, (R)-4-(9-cyclopentyl-5-methyl-6-oxo-6,7,8,9-tetrahydro-5H-pyrimido[4,5-b][1,4]diazepin-2-ylamino)-3-methoxy-N-(1-methylpiperidin-3-yl)benzamide], the IC50 was over 10 nM.

As for `C=CC[C@H]1CN(C2CCCC2)c2nc(Nc3ccc(C(=O)N[C@@H]4CCCNC4)cc3OC)ncc2N(C)C1=O` [Compound 200, 4-((S)-7-allyl-9-cyclopentyl-5-methyl-6-oxo-6,7,8,9-tetrahydro-5H-pyrimido[4,5-b][1,4]diazepin-2-ylamino)-3-methoxy-N-((R)-piperidin-3-yl)benzamide], the IC50 was 1 to 2.51 nM.

For the molecule `C/C=C\CC1CN(C2CCCC2)c2nc(Nc3ccc(C(=O)NC4CCN(C)CC4)cc3OC)ncc2N(C)C1=O` (centres unmarked) [Compound 218, (Z)-4-(7-(but-2-enyl)-9-cyclopentyl-5-methyl-6-oxo-6,7,8,9-tetrahydro-5H-pyrimido[4,5-b][1,4]diazepin-2-ylamino)-3-methoxy-N-(1-methylpiperidin-4-yl)benzamide], the IC50 is under 1 nM.

For `COc1cc(C(=O)N[C@@H]2CCCN(C)C2)ccc1Nc1ncc2c(n1)N(C1CCCCC1)CC1(CC1)C(=O)N2C` [Compound 172, (R)-4-(9′-cyclohexyl-5′-methyl-6′-oxo-5′,6′,8′,9′-tetrahydrospiro[cyclopropane-1,7′-pyrimido[4,5-b][1,4]diazepine]-2′-ylamino)-3-methoxy-N-(1-methylpiperidin-3-yl)benzamide], the IC50 was 1 to 2.51 nM.

As to `COc1cc(C(=O)NN2CCN(C)CC2)ccc1Nc1ncc2c(n1)N(C1CCCC1)CC1(CCC1)C(=O)N2C` [Compound 180, 4-(9′-cyclopentyl-5′-methyl-6′-oxo-5′,6′,8′,9′-tetrahydrospiro[cyclobutane-1,7′-pyrimido[4,5-b][1,4]diazepine]-2′-ylamino)-3-methoxy-N-(4-methylpiperazin-1-yl)benzamide], the IC50 was under 1 nM.

`COc1cc(C(=O)NCc2ccccn2)ccc1Nc1ncc2c(n1)N(C1CCCC1)CCC(=O)N2C` [Compound 69, 4-(9-cyclopentyl-5-methyl-6-oxo-6,7,8,9-tetrahydro-5H-pyrimido[4,5-b][1,4]diazepin-2-ylamino)-3-methoxy-N-(pyridin-2-ylmethyl)benzamide]: the IC50 was 3.16 to 10 nM.

In the case of `CC[C@H]1CN(C2CCCC2)c2nc(Nc3ccc(C(=O)NC4CCN(C)CC4)cc3OC)ncc2N(C)C1=O` [Compound 36, (S)-4-(9-Cyclopentyl-7-ethyl-5-methyl-6-oxo-6,7,8,9-tetrahydro-5H-pyrimido[4,5-b][1,4]diazepin-2-ylamino)-3-methoxy-N-(1-methyl-piperidin-4-yl)-benzamide], the IC50 was 3.16 to 10 nM.

Turning to `C=CC[C@H]1CN(C2CCCC2)c2nc(Nc3ccc(C(=O)N[C@H]4CCNC4)cc3OC)ncc2N(C)C1=O` [Compound 203, 4-((S)-7-allyl-9-cyclopentyl-5-methyl-6-oxo-6,7,8,9-tetrahydro-5H-pyrimido[4,5-b][1,4]diazepin-2-ylamino)-3-methoxy-N-((S)-pyrrolidin-3-yl)benzamide], the IC50 was 1 to 2.51 nM.

Regarding `COc1cc(C(=O)N[C@H]2CCCNC2)ccc1Nc1ncc2c(n1)N(C1CCCCC1)CC(C)(C)C(=O)N2C` [Compound 111, (S)-4-(9-cyclohexyl-5,7,7-trimethyl-6-oxo-6,7,8,9-tetrahydro-5H-pyrimido[4,5-b][1,4]diazepin-2-ylamino)-3-methoxy-N-(piperidin-3-yl)benzamide], the IC50 was 1 to 2.51 nM.

Take `CC[C@]1(C)CN(C2CCCCC2)c2nc(Nc3ccc(C(=O)NC4CN(C)C4)cc3OC)ncc2N(C)C1=O` [Compound 145, (R)-4-(9-cyclohexyl-7-ethyl-5,7-dimethyl-6-oxo-6,7,8,9-tetrahydro-5H-pyrimido[4,5-b][1,4]diazepin-2-ylamino)-3-methoxy-N-(1-methylazetidin-3-yl)benzamide]: the IC50 is 3.16 to 10 nM.

In the case of `COc1cc(C(=O)N[C@H]2CCCNC2)ccc1Nc1ncc2c(n1)N(C1CCCC1)CC(C)(C)C(=O)N2C` [Compound 101, (S)-4-(9-cyclopentyl-5,7,7-trimethyl-6-oxo-6,7,8,9-tetrahydro-5H-pyrimido[4,5-b][1,4]diazepin-2-ylamino)-3-methoxy-N-(piperidin-3-yl)benzamide], the IC50 is 1 to 2.51 nM.

`COc1cc(C(=O)NC2CN(C)C2)ccc1Nc1ncc2c(n1)N(C1CCCC1)CC1(CC1)C(=O)N2C` [Compound 163, 4-(9′-cyclopentyl-5′-methyl-6′-oxo-5′,6′,8′,9′-tetrahydrospiro[cyclopropane-1,7′-pyrimido[4,5-b][1,4]diazepine]-2′-ylamino)-3-methoxy-N-(1-methylazetidin-3-yl)benzamide]: the IC50 was 1 to 2.51 nM.

As to `C=CC[C@H]1CN(C2CCCC2)c2nc(Nc3ccc(C(=O)NN4CCN(C)CC4)cc3OC)ncc2N(C)C1=O` [Compound 206, (S)-4-(7-allyl-9-cyclopentyl-5-methyl-6-oxo-6,7,8,9-tetrahydro-5H-pyrimido[4,5-b][1,4]diazepin-2-ylamino)-3-methoxy-N-(4-methylpiperazin-1-yl)benzamide], the IC50 was under 1 nM.

Consider `COc1cc(C(=O)N[C@H]2CCN(C)C2)ccc1Nc1ncc2c(n1)N(C1CCCC1)CCC(=O)N2C` [Compound 52, (S)-4-(9-cyclopentyl-5-methyl-6-oxo-6,7,8,9-tetrahydro-5H-pyrimido[4,5-b][1,4]diazepin-2-ylamino)-3-methoxy-N-(1-methylpyrrolidin-3-yl)benzamide], for which the IC50 is over 10 nM.

On to `CC[C@@]1(C)CN(C2CCCC2)c2nc(Nc3ccc(C(=O)NC4CN(C)C4)cc3OC)ncc2N(C)C1=O` [Compound 132, (S)-4-(9-cyclopentyl-7-ethyl-5,7-dimethyl-6-oxo-6,7,8,9-tetrahydro-5H-pyrimido[4,5-b][1,4]diazepin-2-ylamino)-3-methoxy-N-(1-methylazetidin-3-yl)benzamide], for which the IC50 is 3.16 to 10 nM.

For `C=C[C@]1(C)CN(C2CCCC2)c2nc(Nc3ccc(C(=O)NC4CCN(C)CC4)cc3OC)ncc2N(C)C1=O` [Compound 240, (R)-4-(9-cyclopentyl-5,7-dimethyl-6-oxo-7-vinyl-6,7,8,9-tetrahydro-5H-pyrimido[4,5-b][1,4]diazepin-2-ylamino)-3-methoxy-N-(1-methylpiperidin-4-yl)benzamide], the IC50 is 3.16 to 10 nM.

`COc1cc(C(=O)NCC2CCN(C)CC2)ccc1Nc1ncc2c(n1)N(C1CCCC1)CC(C)(C)C(=O)N2C` [Compound 88]: the IC50 is over 10 nM.
